{"source": "patent US20090105206A1", "about": "“Copper Melphalan And Copper Tegafur As Anti-Tumor Agents” (priority 2004, published 2009)", "system": "murine renal cell carcinoma (RENCA) tumor cells applied orthotopically", "assay": "Example 3: murine renal cell carcinoma model (RENCA), substance Day 10-18", "format": "in vivo, Balb/c mouse", "details": "5 and 7.5 mg/kg per day i.p., Day 10-18, findings Day 19", "protocol": "Using a murine renal cell carcinoma model (RENCA) of the Balb/c mouse a test of the effectiveness of mel-Cu-mel was carried out on the primary tumor, the metastases and the vessel density. For this the tumor cells were applied orthotopically into the left-hand peri-renal capsule of syngenic mice, the administered dose per day of treatment being: 5 mg/kg mouse and 7.5 mg/kg mouse, 5 animals per dose plus 5 animals for solvent control. The anti-tumor agent according to the invention Cu(mel)2 was applied intraperitonial. The treatment model was as follows:\nAs a control 5 animals were used to which no active ingredient was administered and for comparison a group of 5 animals were administered melphalan alone.", "data": [{"compound": "N[C@@H](Cc1ccc(N(CCCl)CCCl)cc1)C(=O)[O-].N[C@@H](Cc1ccc(N(CCCl)CCCl)cc1)C(=O)[O-].O.O.[Cu+2]", "note": "[Cu(melphalan)2]", "values": [{"measurement": "kidney weight and kidney volume compared with the control (FIG. 5)", "result": "significantly lower kidney weight and kidney volume"}, {"measurement": "lung weight compared with the control and with melphalan alone (FIG. 6)", "result": "reduced"}]}]}
